“Also recorded” adds a separate entry of the source.
Columns and labels:
[1] = test system: rat phrenic nerve, hemi-diaphragm preparation; experiment: Rat phrenic nerve hemi-diaphragm preparation, neostigmine reversibility; details: FIG. 8, in vitro; for neostigmine reversibility of the loss of strength (muscle weakness): 1 μM neostigmine
Procedure: Male, Sprague-Dawley rats weighing 100-180 g were obtained from Envigo and euthanized by exposure to 4.5% isoflurane followed by exsanguination. Right and left hemi-diaphragms were removed and placed in oxygen bubbled, cold saline until use. The saline contained, in mM, 140 NaCl, 5 KCl, 1.6 CaCl2·6H2O, 1 NaH2PO4, 6 NaHCO3, 5 D-glucose, 10 HEPES, pH 7.2 adjusted with 1 N NaOH, and was bubbled with 100% oxygen at 22° C. The costal cartilage of the hemi-diaphragm was secured to the floor of a 20 mL volume chamber with a metal hook and the crural end attached to a metal hook and thread leading to a force transducer (iWorx Systems, Dover, NH) and a data acquisition program (Labscribe). The phrenic nerve was introduced into a suction electrode and stimulated (pulse width=0.5 msec, supramaximal voltage=1 V) with a train of four, i.e., four stimuli in two seconds, repeated every minute. The first pulse, T1, was used as a measure of muscle strength. […]
In the figure CONTROL is the force of contraction before addition of test substances, TEST is the force after the addition of test substances, NEOSTIG is the force of contraction after the addition of 1 μM neostigmine, ROC is rocuronium, and SUC is succinylcholine.

[2] = biological target: T1, adult, human muscle, nicotinic acetylcholine receptor (Homo sapiens, UniProt P02708+P11230+Q04844+Q07001); experiment: Patch clamp electrophysiology in transfected HEK-293 cells; format: cell-based; details: outside-out patch, 10 μM compound, 300 μM acetylcholine, -50 mV; for competition with acetylcholine at the receptor (summary graph): FIG. 9B
T1 construct: expressed in transfected cells; host or cells: HEK-293
Procedure: Patch clamp electrophysiology: HEK-293 cells were transfected with the cDNA for adult, human muscle acetylcholine receptors and prepared for patch clamp recording as described previously. Immediately before the experiment, the culture medium was replace with an extracellular solution (ECS) contains 150 mM NaCl, 5.6 mM KCl, 1.8 mM CaCl2, 1.0 mM MgCl2, and 10 mM HEPES, pH 7.3. Patch pipettes filled with a solution consisting of 140 mM KCl, 5 mM EGTA, 5 mM MgCl2, and 10 mM HEPES, pH 7.3, had resistances of 3 to 4 MΩ. An outside-out patch with a seal resistance of >2 GΩ was excised from a cell and moved into position at the outflow of a HSSE-2 rapid perfusion system (ALA Scientific Instruments, Westbury, NY). The patch was rapidly and transiently perfused with 300 μM acetylcholine to activate >95% of the channels at a holding potential of −50 mV. This was the control trace; the figures show the average of 5 control traces. Subsequently, the same patch was used to test for agonist activity by the carborane compounds by switching to a reservoir containing 300-1000 μM of the compound, repeated 5 times. To test for antagonism, the patch was equilibrated with 10 μM of the compound for >3 s followed by rapid perfusion of 300 μM acetylcholine+compound. Each series of traces using a compound was followed a return to control conditions (recovery) to determine that the control current hadn't changed by more than 20%. The peak current for each series of traces was calculated. The decrease in peak current represented a combination of competitive and open-channel block by the compound. The results are illustrated in FIGS. 9A and 9B.

[3] = test system: mice; details: FIG. 6; dose response

Compound | mechanism of action (depolarizing or non-depolarizing) from neostigmine reversal [1] | neostigmine reversibility of the loss of strength (muscle weakness) [1] | competition with acetylcholine at the receptor (summary graph) [2] | competition with acetylcholine at the receptor (single compound traces) ([2]; FIG. 9A) | relative potency for loss of mouse grip strength as a function of dose injected [3]
1,2-bis(N, N, N-trimethylpropan-1-aminium)-1,2-closo-carborane di-iodide [compound 1] | non-depolarizing NMBA; also recorded: non-depolarizers | reversed by neostigmine | compete with acetylcholine |  | 
1,7-bis(N, N, N-trimethylpropan-1-aminium)-1,7-closo-carborane di-iodide [compound 2] | non-depolarizing NMBA; also recorded: non-depolarizers | reversed by neostigmine | compete with acetylcholine |  | 
1,12-bis(N, N, N-trimethylpropan-1-aminium)-1,12-closo-carborane di-iodide [compound 3] | non-depolarizing NMBA; also recorded: non-depolarizers | reversed by neostigmine | compete with acetylcholine | competes reversibly with acetylcholine | more potent than compound 1
C=CC[N+]1([C@H]2C[C@H]3[C@@H]4CC[C@H]5C[C@H](O)[C@@H](N6CCOCC6)C[C@]5(C)[C@H]4CC[C@]3(C)[C@H]2OC(C)=O)CCCC1 [rocuronium, Rocuronium bromide, reference compound] |  | reversed by neostigmine |  |  | 
C[N+](C)(C)CCOC(=O)CCC(=O)OCC[N+](C)(C)C [succinylcholine, succinylcholine chloride, reference compound] |  | not reversed by neostigmine |  |  | 

From patent US12168652B2, “Neuromuscular blocking agents” (The Curators of the University of Missouri, priority 2018, dated 2024)
